In patent US8835124B2, “Method for treating cancer with agents that bind phosphorylated CDC27” (The Nemours Foundation, priority 2011, dated 2014):

Assays:
[1] = test system: DAOY medulloblastoma cells; test: Cell cycle analysis by flow cytometry after release from G1/S block; type: cell-based, human; conditions: for G0/G1 / G2/M / S: DAOY released from G1/S block
Experimental: (§1) DNA was stained with 100 μg/ml propidium iodide (PI) in hypotonic citrate buffer with 20 μg/ml ribonuclease A. Stained nuclei were analyzed for DNA-PI fluorescence using an Accuri C6 flow cytometer (Accuri Cytometers Inc., Ann Arbor, Mich.). Resulting DNA distributions for sub G0/G1, G0/G1, S and G2/M phase of the cell cycle were analyzed with CFlow plus software (Accuri Cytometers Inc).
(§2) For analysis of cell cycle profiles after mitotic block, cells were synchronized with 2 mM thymidine for 24 hours. The block was released for 3 hours and cells were arrested in prometaphase with 100 nM nocodazole for 12 hours. For G1/S arrest, cells were synchronized for 18 hours with 2 mM thymidine, released for 9 hours, followed by a second thymidine arrest for 18 hours. The block was then released in the presence of DMSO or curcumin as indicated and the cells were processed as described above.
as §1, with “software (Accuri Cytometers. Inc).” for “software (Accuri Cytometers Inc).”
as §2, with “above. […] The data from these cell cycle studies are the mean±SEM of three independent experiments.” for “above.”
At 0, 4, 8, 12, 16 and 20 hours, cell cycle progression was analyzed by flow cytometry.

[2] = test system: DAOY cells; test: LDH release cytotoxicity assay; type: cell-based, human; conditions: 24 hours, 0, 5, 10 and 20 μM; high phosphorylated Cdc27
Experimental: Lactate dehydrogenase (LDH) levels as a measure of cell death were determined using the Non-radioactive Cytotoxicity kit (Promega, Madison, Wis.) according to manufacturer's instructions. […] Cell debris was removed by centrifugation. Viable cell LDH was collected from cells lysed by freezing for 15 minutes at −70° C. followed by thawing at 37° C. The medium was collected and cleared from cell debris by centrifugation. The relative release of LDH was determined as the ratio of released LDH versus total LDH from viable cells.
Data represent mean±SEM of three independent experiments.

[3] = test system: HT1376 cells; test: LDH release cytotoxicity assay; type: cell-based; conditions: 24 hours, 0, 5, 10 and 20 μM; low phosphorylated Cdc27
[4] = molecular target: T1, Cdc27 association with p55Cdc20, APC2, APC8 (Homo sapiens, UniProt P30260); test: Co-immunoprecipitation with anti-Cdc27 antibodies; type: cell-based; conditions: DAOY, curcumin for 8 hours
T1 construct: endogenous in cells
Experimental: For immunoprecipitation, cells were lysed at 4° C. for 30 min in a buffer of 50 mM HEPES, pH 7.4, 150 mM NaCl 0.5% NP-40, 1 mM EDTA, 1 mM Na3VO4, 1 mM aprotinin, 1 mM leupeptin and 1 mM PMSF. Equal amounts of protein (from 0.5 to 2 mg) were incubated with Cdc27 antibody for 4 hours at 4° C. followed by protein G-Sepharose (GE Healthcare) for 2 hours, washed extensively, and analyzed by immunoblotting with indicated antibodies. For λ-phosphatase treatment, Cdc27 was immunoprecipitated as above except that phosphatase and protease inhibitors were omitted and then incubated with λ-[…]phosphatase according to the manufacturer's protocol (New England Biolabs, Ipswich, Mass.).
Proper APC/C function requires co-activator proteins such as Cdc20 or Cdh1 that may facilitate the recruitment of substrates. […] Cell lysates were subjected to immunoprecipitation with anti-Cdc27 antibodies. Immunoprecipitated proteins were immunoblotted with antibodies to APC2, APC8, p55 Cdc20 or Cdh1. Immunoblots of total cell lysates are shown to ensure equal loading. […] Under the experimental conditions used, Cdh1 was not found to be associating with Cdc27 (FIG. 8C).

[5] = test system: acetylated tubulin; test: Acetylated tubulin accumulation in cell lines; type: cell-based; conditions: cells with low levels of phosphorylated Cdc27; 20 μM curcumin for 0, 4, 8 and 24 hours
Experimental: Accumulation of acetylated tubulin was assayed. […] Thus, loss of Cdc27 function or p55Cdc20 association with Cdc27 may be linked to increased tubulin acetylation in curcumin-treated cells.

[6] = test system: medulloblastoma cells; conditions: cited from earlier work

COc1cc(/C=C/C(=O)CC(=O)/C=C/c2ccc(O)c(OC)c2)ccc1O [Curcumin, (E,E)-1,7-bis(4-hydroxy-3-methoxyphenyl)-1,6-heptadiene-3,5-dion]
cells that had not re-entered G0/G1 ([1]; 20 μM curcumin, 20 hours after removal of the thymidine block): 56.9%
time after release at which cells reached G2/M ([1]; DAOY released from G1/S block in the presence of 10 μM curcumin (control 8-12 hours)): 12 to 16 h
time after release at which cells reached G2/M ([1]; DAOY released from G1/S block in the presence of 20 μM curcumin (control 8-12 hours)): 16 to 20 h
sub-G0/G1 signal (apoptosis) ([1]; DAOY released from G1/S block with curcumin, up to 20 hours): no sub-G0/G1 signal, was detected
G0/G1 ([1]; 10 μM Curcumin, 0 Hr): 48.15 ± 0.32%
G2/M ([1]; 10 μM Curcumin, 0 Hr): 32.96 ± 1.97%
S ([1]; 10 μM Curcumin, 0 Hr): 18.89 ± 2.17%
G0/G1 ([1]; 10 μM Curcumin, 4 Hr): 41.92 ± 5.16%
G2/M ([1]; 10 μM Curcumin, 4 Hr): 25.88 ± 3.55%
S ([1]; 10 μM Curcumin, 4 Hr): 32.13 ± 2.64%
G0/G1 ([1]; 10 μM Curcumin, 8 Hr): 24.94 ± 4.83%
G2/M ([1]; 10 μM Curcumin, 8 Hr): 35.33 ± 5.04%
S ([1]; 10 μM Curcumin, 8 Hr): 39.71 ± 4.45%
G0/G1 ([1]; 10 μM Curcumin, 12 Hr): 32.40 ± 8.28%
G2/M ([1]; 10 μM Curcumin, 12 Hr): 44.92 ± 11.40%
S ([1]; 10 μM Curcumin, 12 Hr): 22.71 ± 3.49%
G0/G1 ([1]; 10 μM Curcumin, 16 Hr): 42.40 ± 6.35%
G2/M ([1]; 10 μM Curcumin, 16 Hr): 34.85 ± 9.11%
S ([1]; 10 μM Curcumin, 16 Hr): 22.75 ± 3.63%
G0/G1 ([1]; 10 μM Curcumin, 20 Hr): 46.46 ± 2.96%
G2/M ([1]; 10 μM Curcumin, 20 Hr): 29.88 ± 3.86%
S ([1]; 10 μM Curcumin, 20 Hr): 23.66 ± 4.26%
G0/G1 ([1]; 20 μM Curcumin, 0 Hr): 48.15 ± 0.32%
G2/M ([1]; 20 μM Curcumin, 0 Hr): 32.96 ± 1.97%
S ([1]; 20 μM Curcumin, 0 Hr): 18.89 ± 2.17%
G0/G1 ([1]; 20 μM Curcumin, 4 Hr): 40.18 ± 5.31%
G2/M ([1]; 20 μM Curcumin, 4 Hr): 28.33 ± 1.56%
S ([1]; 20 μM Curcumin, 4 Hr): 31.55 ± 3.94%
G0/G1 ([1]; 20 μM Curcumin, 8 Hr): 31.66 ± 3.64%
G2/M ([1]; 20 μM Curcumin, 8 Hr): 31.58 ± 2.35%
S ([1]; 20 μM Curcumin, 8 Hr): 36.76 ± 2.49%
G0/G1 ([1]; 20 μM Curcumin, 12 Hr): 21.69 ± 2.77%
G2/M ([1]; 20 μM Curcumin, 12 Hr): 40.44 ± 3.95%
S ([1]; 20 μM Curcumin, 12 Hr): 37.87 ± 3.29%
G0/G1 ([1]; 20 μM Curcumin, 16 Hr): 20.99 ± 2.17%
G2/M ([1]; 20 μM Curcumin, 16 Hr): 48.68 ± 5.04%
S ([1]; 20 μM Curcumin, 16 Hr): 30.34 ± 4.57%
G0/G1 ([1]; 20 μM Curcumin, 20 Hr): 27.44 ± 4.69%
G2/M ([1]; 20 μM Curcumin, 20 Hr): 43.06 ± 5.04%
S ([1]; 20 μM Curcumin, 20 Hr): 29.53 ± 0.59%
sensitivity to curcumin-induced apoptosis (LDH release) [2]: most sensitive
sensitivity to curcumin-induced apoptosis (LDH release) [3]: almost unaffected
Cdc27 association with the APC/C subunits APC2 and APC8 [4]: not affected
p55Cdc20 association with Cdc27 ([4]; compared to control cells): dramatically reduced
curcumin-induced tubulin acetylation [5]: reduced
cell cycle arrest and apoptosis [6]: induces G2/M arrest and apoptosis
